In patent publication US20200078303A1, “PHARMACEUTICAL FORMULATIONS OF SUVOREXANT” (Druggability Technologies IP HoldCo Ltd., priority 2016, published 2020):

Tests used:
[1] = cited from earlier work
human plasma proteins = conditions: cited from earlier work
[2] = Rat oral pharmacokinetics at 3 mg/kg; type: in vivo; conditions: fasted rats
Protocol: A rat study with oral administration at 3 mg/kg was performed. Two pharmaceutical formulations of the present invention, the crystalline compound and crushed BELSOMRA® tablets were administered and plasma concentrations were measured. Absorption following the administration of the pharmaceutical formulations of the present invention was immediate, while absorption for the crystalline and BELSOMRA® were slower.

Compound	mean absolute bioavailability ([1]; 10 mg) [%]	mean t½ ([1]; 95% CI: 12 to 13)	median tmax ([1]; fasted conditions) [h]	tmax range ([1]; fasted conditions) [h]	change in AUC or Cmax with high-fat meal ([1]; high-fat meal)	delay in tmax with high-fat meal ([1]; high-fat meal)	mean volume of distribution ([1]; human, in vivo)	radiolabeled dose recovered in the feces ([1]; human, in vivo)	radiolabeled dose recovered in the urine ([1]; human, in vivo) [%]	accumulation ([1]; once-daily dosing)	time to steady-state ([1]; once-daily dosing) [days]	dose proportionality of exposure ([1]; range of 10-80 mg)	bound to human plasma proteins (human plasma proteins) [%]	absorption after oral administration (in words) [2]
Cc1ccc(-n2nccn2)c(C(=O)N2CCN(c3nc4cc(Cl)ccc4o3)CC[C@H]2C)c1 [Suvorexant, [(7R)-4-(5-chloro-2-benzoxazolyl)hexahydro-7-methyl-1H-1,4-diazepin-1-yl][5-methyl-2-(2H-1,2,3-triazol-2-yl)phenyl]methanone]	82	approximately 12 hours	2	0.5 to 6	no meaningful change	approximately 1.5 hours	approximately 49 liters	approximately 66%	23	1- to 2 fold	≤ 3	less than strictly dose-proportional	> 99	–
Cc1ccc(-n2nccn2)c(C(=O)N2CCN(c3nc4cc(Cl)ccc4o3)CC[C@H]2C)c1 [crystalline compound]	–	–	–	–	–	–	–	–	–	–	–	–	–	slower
